Measured values: patent publication US12172975B2, “1H-indazole carboxamides as receptor-interacting protein kinase 1 inhibitors (RIPK1)” (BRISTOL-MYERS SQUIBB COMPANY, priority 2018, dated 2024)
Where two headings read alike, the source gives them in different places.

Experiments:
[1] = target: His-GST-TVMV-hRIPK1 (1-324) (Homo sapiens (Human), UniProt Q13546); experiment: RIPK1 HTRF Binding Assay; details: read-out: RIPK1 HTRF (IC50); FRET probe displacement, 1 h at rt
Protocol: A solution was prepared containing 0.2 nM Anti GST-Tb (Cisbio, 61GSTTLB), 90.6 nM probe and 1 nM His-GST-TVMV-hRIPK1 (1-324) in FRET Buffer (20 mM HEPES, 10 mM MgCl2, 0.015% Brij-35, 4 mM DTT, 0.05 mg/mL BSA). Using Formulatrix Tempest, the detection antibody/enzyme/probe solution (2 mL) was dispensed into wells of a 1536 plate (Black Low Binding Polystyrene 1536 Plate (Corning, 3724)) containing 10 nL of compounds of interest at appropriate concentration in DMSO. The plate was incubated at rt for 1 h. FRET was measured using the EnVision plate reader (Excitation: 340 nm, Emission: 520 nm/495 nM). Total signal (0% inhibition) was calculated from wells containing 10 nL DMSO only.

[2] = system: MLKL phosphorylation in HT29-L23 human colorectal adenocarcinoma cells; experiment: MLKL Phosphorylation High-Content Assay; assay type: cell-based; details: 6 h, necroptosis induced with TNFα, SMAC mimetic and Z-VAD, read-out: pMLKL (IC50)
Summary of the method: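 HT29-L23 cells were induced to necroptosis with TNFα (35 ng/mL), SMAC mimetic (700 nM) and Z-VAD (140 nM) for 6 h at 37 °C. Phospho-MLKL (S358) immunofluorescence was imaged and quantified per cell; maximal inhibition set by Nec-1s (6.25 μM), and IC50/Ymax from 4-parameter logistic fit.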

Chain of His-GST-TVMV-hRIPK1 (1-324) (Q13546 1-324): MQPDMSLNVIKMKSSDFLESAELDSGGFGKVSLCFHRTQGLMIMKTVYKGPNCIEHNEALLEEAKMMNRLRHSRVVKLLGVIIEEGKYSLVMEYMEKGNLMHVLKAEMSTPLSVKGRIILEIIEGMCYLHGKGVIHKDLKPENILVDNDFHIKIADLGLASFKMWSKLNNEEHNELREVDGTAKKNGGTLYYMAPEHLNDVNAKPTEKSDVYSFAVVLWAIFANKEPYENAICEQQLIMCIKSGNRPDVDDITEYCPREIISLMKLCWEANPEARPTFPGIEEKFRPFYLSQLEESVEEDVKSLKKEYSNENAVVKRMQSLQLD

Compound	IC50 [1] [nM]	IC50 ([2]; Homo sapiens) [nM]	IC50 [2] [nM]
COc1ncc(-c2ccc3c(C(=O)NC4CCN(C(C)=O)CC4)n[nH]c3c2)cc1C(=O)NCc1ccccc1OC(F)(F)F [Example 180, N-(1-acetylpiperidin-4-yl)-6-[6-methoxy-5-({[2-(trifluoro-methoxy)phenyl]methyl}carbam-oyl)pyridin-3-yl]-1H-indazole-3-carboxamide]	19	39	–
CNC(=O)c1n[nH]c2cc(-c3cnc(OC)c(C(=O)N[C@@H](C)CC(=O)OC(C)(C)C)c3)cc(F)c12 [Example 146, tert-butyl (3S)-3-({5-[4-fluoro-3-(methylcarbamoyl)-1H-indazol-6-yl]-2-methox-pyridin-3-yl}formamido)-butanoate]	69	400	–
[2H]C([2H])([2H])Oc1ncc(-c2ccc3c(C(=O)NC)n[nH]c3c2)cc1C(=O)N[C@H](C)c1cccc(C(F)(F)F)c1 [Example 34, 6-[6-(deutero)methoxy-5-{[(1R)-1-[3-(trifluoromethyl)phenyl]-ethyl]carbamoyl}pyridin-3-yl]-N-methyl-1H-indazole-3-carbox-amide]	57	92	–
COc1ncc(-c2ccc3c(C(=O)NC4CCC(N(C)C)CC4)n[nH]c3c2)cc1C(=O)NCc1ccccc1OC(F)(F)F (stereo not shown) [Example 185, N-[4-(dimethylamino)cyclo-hexyl]-6-[6-methoxy-5-({[2-(trifluoromethoxy)phenyl]-methyl}carbamoyl)pyridin-3-yl]-1H-indazole-3-carboxamide]	13	110	–
CNC(=O)c1n[nH]c2cc(-c3cnc(OC)c(C(=O)NCC4CCCOC4c4ccccc4)c3)ccc12 (stereo not shown) [Example 79, 6-(6-methoxy-5-{[(2-phenyl-oxan-3-yl)methyl]carbamoyl}-pyridin-3-yl)-N-methyl-1H-indazole-3-carboxamide]	1.8	21	–
CNC(=O)c1n[nH]c2cc(-c3cnc(OC)c(C(=O)NCC4(COc5ccccc5)CC4)c3)ccc12 [Example 68, 6-[6-methoxy-5-({[1-(phenoxy-methyl)cyclopropyl]methyl}-carbamoyl)-pyridin-3-yl]-N-methyl-1H-indazole-3-carbox-amide]	4.6	–	28
CNC(=O)c1n[nH]c2cc(-c3cnc(OC)c(C(=O)NCCCOCC(C)C)c3)ccc12 [Example 64, 6-(6-methoxy-5-{[3-(2-methyl-propoxy)propyl]carbamoyl}-pyridin-3-yl)-N-methyl-1H-indazole-3-carboxamide]	8.1	3	–
[2H]C([2H])([2H])NC(=O)c1n[nH]c2cc(-c3cnc(OC)c(C(=O)NCCC(=O)OC(C)(C)C)c3)ccc12 [Example 150, tert-butyl 3-[(2-methoxy-5-{3-[(deutero)methylcarbamoyl]-1H-indazol-6-yl}pyridin-3-yl)-formamido]propanoate]	32	110	–
CNC(=O)c1n[nH]c2cc(-c3cnc(OC)c(C(=O)NCC(C)(C)C(=O)OC(C)(C)C)c3)ccc12 [Example 90, tert-butyl 3-({2-methoxy-5-[3-(methylcarbamoyl)-1H-indazol-6-yl]pyridin-3-yl}-formamido)-2,2-dimethyl-propanoate]	16	47	–
CNC(=O)c1n[nH]c2cc(-c3cnc(OC)c(C(=O)NCc4cc(F)cc(F)c4OCC4CC4)c3)ccc12 [Example 128, 6-[5-({[2-(cyclopropylmeth-oxy)-3,5-difluorophenyl]-methyl}carbamoyl)-6-meth-oxypyridin-3-yl]-N-methyl-1H-indazole-3-carboxamide]	2.3	3.1	–
COc1ncc(-c2ccc3c(C(=O)NC4CCN(S(C)(=O)=O)CC4)n[nH]c3c2)cc1C(=O)NCc1ccccc1OC(F)(F)F [Example 169, N-(1-methanesulfonylpiperidin-4-yl)-6-[6-methoxy-5-({[2-(trifluoromethoxy)phenyl]-methyl}carbamoyl)pyridin-3-yl]-1H-indazole-3-carboxamide]	22	31	–
CNC(=O)c1n[nH]c2cc(-c3cnc(OC)c(C(=O)NCc4cc(C(F)(F)F)ccc4OC)c3)ccc12 [Example 76, 6-[6-methoxy-5-({[2-methoxy-5-(trifluoromethyl)phenyl]-methyl}carbamoyl)pyridin-3-yl]-N-methyl-1H-indazole-3-carboxamide]	98	100	–
[2H]C([2H])([2H])Oc1ncc(-c2ccc3c(C(=O)NC4CC4)n[nH]c3c2)cc1C(=O)N[C@H](C)c1cccc(C(F)(F)F)c1 [Example 210, N-cyclopropyl-6-[6-(deutero)meth-oxy-5-{[(1R)-1-[3-(trifluorometh-yl)phenyl]ethyl]carbamoyl}pyridin-3-yl]-1H-indazole-3-carboxamide]	450	88	–
CCNC(=O)c1n[nH]c2cc(-c3cnc(OC)c(C(=O)N[C@H](C)c4cc(C(F)(F)F)ccc4F)c3)ccc12 [Example 234, N-[(1,1,2,2,2-deutero)ethyl]-6-(5-{[(1R)-1-[2-fluoro-5-(trifluorometh-yl)phenyl](2,2,2-deutero)ethyl]-carbamoyl}-6-(deutero)methoxy-pyridin-3-yl)-1H-indazole-3-carbox-amide]	8.7	–	20
CNC(=O)c1n[nH]c2cc(-c3cnc(OC)c(C(=O)NCc4ccccc4OC(C)C)c3)ccc12 [Example 93, 6-[6-methoxy-5-({[2-(propan-2-yloxy)phenyl]methyl}-carbamoyl)pyridin-3-yl]-N-methyl-1H-indazole-3-carbox-amide]	1.3	–	8.3
[2H]C([2H])([2H])Oc1ncc(-c2ccc3c(C(=O)NC4CC4)n[nH]c3c2)cc1C(=O)N[C@@H](C)c1cc(C(F)(F)F)ccc1F [Example 194, N-cyclopropyl-6-(5-{[(1S)-1-[2-fluoro-5-(trifluoromethyl)phenyl]-ethyl]carbamoyl}-6-(deutero)meth-oxypyridin-3-yl)-1H-indazole-3-carboxamide]	67	52	–
[2H]C([2H])([2H])Oc1ncc(-c2ccc3c(C(=O)NC)n[nH]c3c2)cc1C(=O)NCCC(=O)OC(C)(C)C [Example 26, tert-butyl 3-{[2-(deutero)methoxy-5-[3-(methylcarbamoyl)-1H-indazol-6-yl]pyridin-3-yl]form-amido}propanoate]	82	90	–
CNC(=O)c1n[nH]c2cc(-c3cnc(OC)c(C(=O)NCc4ccccc4OC4CCCCC4)c3)ccc12 [Example 113, 6-[5-({[2-(cyclohexyloxy)-phenyl]methyl}carbamoyl)-6-methoxypyridin-3-yl]-N-methyl-1H-indazole-3-carbox-amide]	27	–	9.7
CNC(=O)c1n[nH]c2cc(-c3cnc(OC)c(C(=O)NC4CCCC(NC(=O)C(C)(C)C)C4)c3)ccc12 (single isomer, unassigned) [Example 17, 6-(6-methoxy-5-((3-pivalamidocyclohexyl)carbamoyl)pyridin-3-yl)-N-methyl-1H-indazole-3-carboxamide]	21	19	–
[2H]C([2H])([2H])Oc1ncc(-c2ccc3c(C(=O)NC4CCC(N(C([2H])([2H])[2H])C([2H])([2H])[2H])CC4)n[nH]c3c2)cc1C(=O)NC(C)c1cccc(OC(F)(F)F)c1 (stereo not shown) [Example 23, N-(4-(dimethyld6-amino)cyclohexyl)-6-(6-methoxyd3-5-((1-(3-(trifluoromethoxy)phenyl)ethyl)carbamoyl)pyridin-3-yl)-1H-indazole-3-carboxamide]	24	140	–
N-[(1,1,2,2,2-deutero)ethyl]-6-(5- {[(1R)-1-[2-fluoro-5-(trifluoro- methoxy)phenyl]ethyl]carbamoyl}- 6-(deutero)methoxypyridin-3-yl)- 1H-indazole-3-carboxamide [Example 225]	43	–	91
CNC(=O)c1n[nH]c2cc(-c3cc(C(=O)NC(C)c4ccccc4OC(F)(F)F)c(OC)nc3C)ccc12 (stereo not shown) [Example 158, 6-[6-methoxy-2-methyl-5-({1-[2-(trifluoromethoxy)-phenyl]ethyl}carbamoyl)-pyridin-3-yl]-N-methyl-1H-indazole-3-carboxamide]	35	21	–
CNC(=O)c1n[nH]c2cc(-c3cnc(OC)c(-c4nnn(Cc5ccccc5)n4)c3)ccc12 [Example 20, 6-[5-(2-benzyl-2H-1,2,3,4-tetrazol-5-yl)-6-methoxypyridin-3-yl]-N-methyl-1H-indazole-3-carboxamide]	66	27	–
CNC(=O)c1n[nH]c2cc(-c3cnc(OC)c(C(=O)NCc4ccccc4C#N)c3)ccc12 [Example 84, 6-(5-{[(2-cyanophenyl)methyl]-carbamoyl}-6-methoxypyridin-3-yl)-N-methyl-1H-indazole-3-carboxamide]	45	180	–
CNC(=O)c1n[nH]c2cc(-c3cnc(OC)c(C(=O)NCC4CCCN4C(=O)C(C)(C)C(F)(F)F)c3)ccc12 (stereo not shown) [Example 96, 6-[6-methoxy-5-({[1-(3,3,3-trifIuoro-2,2-dimethylpropan-oyl)pyrrolidin-2-yl]methyl}-carbamoyl)pyridin-3-yl]-N-methyl-1H-indazole-3-carboxamide]	34	–	4.6
COc1ncc(-c2ccc3c(C(=O)NCCO)n[nH]c3c2)cc1C(=O)NCc1ccccc1OC(F)(F)F [Example 182, N-(2-hydroxyethyl)-6-[6-meth-oxy-5-({[2-(trifluoromethoxy)-phenyl]methyl}carbamoyl)-pyridin-3-yl]-1H-indazole-3-carboxamide]	12	83	–
